Calls of active or inactive are those of the source.
How the values were obtained:
[1] = Luminescence Cell-Based Dose Response HTS to Identify Inhibitors of 5'UTR Stem-Loop Driven Prion Protein mRNA Translation in H4 Neuroglioblastoma Cells. [Related pubchem assays: 1827 (Project Summary), 1813 (Primary HTS)]; format: functional
[2] = alpha-synuclein stem-loop luciferase translation blockers – H4 neuroglioma cells, luminescence, confirmation (AID 1988); format: functional, cell-based
[3] = biological target: T1, Mannose-6-phosphate isomerase (Homo sapiens, UniProt P34949); experiment: MPI inhibition at elevated mannose 6-phosphate – biochemical, fluorescence intensity, high mannose 6-phosphate, primary screen (AID 1220)
T1 sequence (P34949 whole entry): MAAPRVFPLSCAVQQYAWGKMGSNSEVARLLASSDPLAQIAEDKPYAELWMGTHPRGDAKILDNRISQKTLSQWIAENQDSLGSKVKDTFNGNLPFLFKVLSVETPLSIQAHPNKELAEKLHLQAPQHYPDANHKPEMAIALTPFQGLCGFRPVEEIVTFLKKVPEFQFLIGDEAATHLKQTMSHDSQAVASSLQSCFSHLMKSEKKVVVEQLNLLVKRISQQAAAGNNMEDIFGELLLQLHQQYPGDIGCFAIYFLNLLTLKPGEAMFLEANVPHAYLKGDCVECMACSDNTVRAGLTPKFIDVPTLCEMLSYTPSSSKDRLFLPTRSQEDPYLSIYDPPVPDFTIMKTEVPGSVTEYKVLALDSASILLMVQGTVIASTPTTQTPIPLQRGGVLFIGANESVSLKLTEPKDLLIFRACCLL

Keap1/Nrf2 = Keap1/Nrf2 (Homo sapiens, UniProt Q14145); experiment: disruptors of Keap1 binding to Nrf2 peptide – biochemical, fluorescence polarization, cherry-picked samples, dose response (AID 588683)
A-375 = experiment: MITF: Counter assay: A375 proliferation Measured in Cell-Based System Using Plate Reader - 2084-03_Inhibitor_Dose_DryPowder_Activity. [Related pubchem assays (depositor defined):AID488944]; format: functional; details: Homo sapiens
[4] = decrease of insulin promoter-GFP reporter – imaging, high-content screening, mouse beta cells (AID 1628); format: functional; details: MIN6
[5] = mitochondrial function rescue without frataxin homolog – Friedreich's ataxia, plus single-dose screen, dose response (AID 1465); format: functional;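 further: yeast depleted of Yfh1p frataxin homolog grown on glycerol needing respiration; WST-1 tetrazolium dye reduction as measure of cellular dehydrogenase metabolic activity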
Paired box protein Pax-8 = Paired box protein Pax-8 (Homo sapiens, UniProt Q06710); experiment: PAX8 transcriptional activity inhibition in RMG-I – RMG-I cells, luciferase, cherry-pick, dose response (AID 687027); format: functional, cell-based;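 further: luciferase reporter driven by Pax8 target thyroperoxidase promoter measured by SteadyGlo luminescence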
CHO = CHO cell viability loss, potency – luminescence, cytotoxicity control for TLR9-MyD88 binding inhibitor project, dose response (AID 588339); format: functional, cell-based, hamster; details: Cricetulus griseus;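 further: CHO cells stably coexpressing TLR9 and MyD88 fusions from primary screen; compound exposure lasted 48 hours before viability readout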
Caspase-3 = biological target: T2, Caspase-3 (Homo sapiens, UniProt P42574); format: functional;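 further: Dose-response selectivity test against caspase-3 for candidate inhibitors of sentrin-specific proteases (SENPs)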
T2 sequence (P42574 whole entry): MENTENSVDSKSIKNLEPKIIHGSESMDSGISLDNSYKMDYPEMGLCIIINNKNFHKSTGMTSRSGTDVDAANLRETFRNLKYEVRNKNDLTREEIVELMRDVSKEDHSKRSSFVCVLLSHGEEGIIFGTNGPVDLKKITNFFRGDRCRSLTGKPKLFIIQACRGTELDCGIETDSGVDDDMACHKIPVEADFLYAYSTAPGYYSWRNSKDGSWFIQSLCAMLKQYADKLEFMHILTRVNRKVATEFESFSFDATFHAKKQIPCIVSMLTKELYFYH

SUMO-activating enzyme = SUMO-activating enzyme (Homo sapiens, UniProt Q9UBT2); experiment: blockers of SAE1/SAE2–UBC9 SUMO transfer – biochemical, HTRF, uHTS, primary screen (AID 2006); format: protein-complex assay
[6] = biological target: T3, Sentrin-specific protease 8 (Homo sapiens, UniProt Q96LD8); format: functional;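 further: luminescence read-out of SENP8 inhibition, dose-response confirmation following an ultra-high-throughput screen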
T3 sequence (Q96LD8 whole entry): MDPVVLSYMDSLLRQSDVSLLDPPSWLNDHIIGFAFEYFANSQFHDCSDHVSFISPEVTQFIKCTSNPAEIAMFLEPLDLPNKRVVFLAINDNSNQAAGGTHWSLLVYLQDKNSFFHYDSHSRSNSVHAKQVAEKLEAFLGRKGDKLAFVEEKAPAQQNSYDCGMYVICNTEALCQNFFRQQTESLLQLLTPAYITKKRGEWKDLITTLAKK

SUMO E1/E2 = SUMO E1/E2 (Homo sapiens, UniProt P63279+Q9UBE0+Q9UBT2); experiment: SAR analysis of SUMOylation using HTRF in an in-Vitro dose response assay. [Related pubchem assays (depositor defined):AID2006, AID2011, AID2018, AID2069, AID2658]; format: functional
[7] = viability loss in CEM21 cells – cell-based, CellTiter-Glo luminescence, cherry-picked, cytotoxicity control for viral fusion inhibitor project, dose response (AID 652042); format: functional;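 further: potency for signal decrease meaning cytotoxicity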
[8] = blockers of HIV-1 envelope-mediated cell-cell fusion – cherry-pick, dose response (AID 652057); format: functional, cell-based
[9] = biological target: Protein-tyrosine kinase 2-beta (Homo sapiens, UniProt Q14289);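 further: potency of inhibitors of PYK2 kinase phosphorylation of poly-GT substrate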
[10] = HIV-1 AD8 envelope cell-cell fusion blockers – cherry-pick, dose response (AID 652062); format: functional, cell-based;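 further: luciferase signal from cell-cell fusion driven by HIV-1 clade B AD8 Env; potency is for inhibitors of fusion seen as a drop in luminescence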
[11] = blockers of HIV-1 ZM109 envelope-driven cell-cell fusion – HeLa effector, CEM target cells, luciferase, cherry-pick, dose response (AID 652058); format: functional, cell-based;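 further: luciferase signal from HIV-1 Env mediated cell-cell fusion of effector and target cells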
[12] = biological target: 1-phosphatidylinositol 4,5-bisphosphate phosphodiesterase gamma-1 (Homo sapiens, UniProt P19174); experiment: Counterscreen for inhibitors of phospholipase C isozymes (PLC-B3): Fluorescence-based biochemical high throughput dose response assay to identify inhibitors of phospholipase C isozymes (PLC-gamma1).
[13] = off-target signal loss in HeLa-CEM21 co-culture – HeLa F-luc CTL cells, cherry-picked, counter-screen for HIV-1 Env fusion inhibitor project, dose response (AID 652040); format: functional, cell-based;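 further: potency for signal decrease marking cytotoxic or nonspecific inhibition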
[14] = biological target: Photoreceptor-specific nuclear receptor (Homo sapiens, UniProt Q9Y5X4); format: functional;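 further: potency for compounds that break the NR2E3 corepressor complex and count as activators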
[15] = biological target: T4, Sphingosine 1-phosphate receptor 4 (Homo sapiens, UniProt O95977); experiment: Fluorescence dose response cell-based high throughput screening assay for antagonists of the Sphingosine 1-Phosphate Receptor 4 (S1P4). [Related pubchem assays: 1524 (Confirmation in triplicates.), 1510 (Primary screen.)]; format: functional
T4 sequence (O95977 whole entry): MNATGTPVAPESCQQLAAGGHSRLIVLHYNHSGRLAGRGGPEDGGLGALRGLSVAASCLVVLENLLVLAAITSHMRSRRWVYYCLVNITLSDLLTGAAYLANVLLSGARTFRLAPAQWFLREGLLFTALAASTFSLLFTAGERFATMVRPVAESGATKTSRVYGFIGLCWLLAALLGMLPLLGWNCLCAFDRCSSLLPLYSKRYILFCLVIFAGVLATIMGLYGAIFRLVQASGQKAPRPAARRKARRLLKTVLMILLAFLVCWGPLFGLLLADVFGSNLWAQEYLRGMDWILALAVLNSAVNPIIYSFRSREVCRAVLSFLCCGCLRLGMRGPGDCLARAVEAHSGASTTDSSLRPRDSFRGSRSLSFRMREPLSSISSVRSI

Sequence of SUMO E1/E2 (Q9UBE0 whole entry, the tested form may be a part): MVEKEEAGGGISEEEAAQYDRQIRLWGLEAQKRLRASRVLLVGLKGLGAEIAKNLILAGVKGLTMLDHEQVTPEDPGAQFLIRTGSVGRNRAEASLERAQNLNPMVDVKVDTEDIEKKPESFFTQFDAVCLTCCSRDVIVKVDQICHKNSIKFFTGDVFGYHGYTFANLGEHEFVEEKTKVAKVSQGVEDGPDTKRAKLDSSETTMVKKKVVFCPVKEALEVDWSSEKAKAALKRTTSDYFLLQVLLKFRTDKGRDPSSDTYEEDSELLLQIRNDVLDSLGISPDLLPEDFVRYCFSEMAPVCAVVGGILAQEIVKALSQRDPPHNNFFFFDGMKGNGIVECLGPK
Sequence of SUMO E1/E2 (Q9UBT2 whole entry, the tested form may be a part): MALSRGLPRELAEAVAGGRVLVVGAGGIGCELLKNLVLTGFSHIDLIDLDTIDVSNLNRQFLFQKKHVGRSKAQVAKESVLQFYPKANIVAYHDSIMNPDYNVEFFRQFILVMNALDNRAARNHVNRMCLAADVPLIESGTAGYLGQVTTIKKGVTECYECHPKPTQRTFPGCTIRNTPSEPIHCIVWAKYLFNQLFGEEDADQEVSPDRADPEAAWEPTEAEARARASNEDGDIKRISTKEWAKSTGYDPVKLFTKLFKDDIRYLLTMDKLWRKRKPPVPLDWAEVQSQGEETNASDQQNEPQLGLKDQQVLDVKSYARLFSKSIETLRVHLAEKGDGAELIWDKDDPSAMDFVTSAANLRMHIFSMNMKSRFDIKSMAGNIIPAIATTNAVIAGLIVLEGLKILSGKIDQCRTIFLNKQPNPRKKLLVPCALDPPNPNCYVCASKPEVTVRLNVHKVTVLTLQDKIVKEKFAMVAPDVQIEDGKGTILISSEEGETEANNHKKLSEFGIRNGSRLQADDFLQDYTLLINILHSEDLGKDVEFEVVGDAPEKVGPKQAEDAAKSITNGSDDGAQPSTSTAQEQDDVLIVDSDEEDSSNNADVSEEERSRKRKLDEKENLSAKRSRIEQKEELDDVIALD
Sequence of SUMO E1/E2 (P63279 whole entry, the tested form may be a part): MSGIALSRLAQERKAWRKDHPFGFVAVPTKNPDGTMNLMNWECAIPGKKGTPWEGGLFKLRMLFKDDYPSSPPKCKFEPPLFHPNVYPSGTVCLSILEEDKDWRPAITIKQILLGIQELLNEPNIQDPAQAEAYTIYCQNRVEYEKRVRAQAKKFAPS
Sequence of SUMO-activating enzyme (Q9UBE0 whole entry): as the sequence (Q9UBE0 whole entry, the tested form may be a part) above
Sequence of SUMO-activating enzyme (Q9UBT2 whole entry): as the sequence (Q9UBT2 whole entry, the tested form may be a part) above
Sequence of Keap1/Nrf2 (Q16236 whole entry): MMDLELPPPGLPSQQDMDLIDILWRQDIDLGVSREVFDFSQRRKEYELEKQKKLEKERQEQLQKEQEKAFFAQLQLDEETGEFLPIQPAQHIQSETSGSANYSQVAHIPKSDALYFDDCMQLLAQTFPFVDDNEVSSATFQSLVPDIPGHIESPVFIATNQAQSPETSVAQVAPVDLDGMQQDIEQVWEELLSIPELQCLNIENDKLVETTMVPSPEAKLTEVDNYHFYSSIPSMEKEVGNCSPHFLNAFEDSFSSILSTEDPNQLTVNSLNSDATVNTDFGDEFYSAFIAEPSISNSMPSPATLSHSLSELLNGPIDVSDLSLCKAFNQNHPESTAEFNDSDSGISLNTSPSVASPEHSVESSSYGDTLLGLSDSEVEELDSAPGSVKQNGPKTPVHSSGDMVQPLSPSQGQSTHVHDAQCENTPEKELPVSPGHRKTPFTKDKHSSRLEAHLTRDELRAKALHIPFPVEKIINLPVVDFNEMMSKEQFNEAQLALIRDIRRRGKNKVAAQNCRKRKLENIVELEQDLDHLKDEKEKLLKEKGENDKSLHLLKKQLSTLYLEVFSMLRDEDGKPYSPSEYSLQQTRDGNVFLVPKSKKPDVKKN
Sequence of Keap1/Nrf2 (Q14145 whole entry): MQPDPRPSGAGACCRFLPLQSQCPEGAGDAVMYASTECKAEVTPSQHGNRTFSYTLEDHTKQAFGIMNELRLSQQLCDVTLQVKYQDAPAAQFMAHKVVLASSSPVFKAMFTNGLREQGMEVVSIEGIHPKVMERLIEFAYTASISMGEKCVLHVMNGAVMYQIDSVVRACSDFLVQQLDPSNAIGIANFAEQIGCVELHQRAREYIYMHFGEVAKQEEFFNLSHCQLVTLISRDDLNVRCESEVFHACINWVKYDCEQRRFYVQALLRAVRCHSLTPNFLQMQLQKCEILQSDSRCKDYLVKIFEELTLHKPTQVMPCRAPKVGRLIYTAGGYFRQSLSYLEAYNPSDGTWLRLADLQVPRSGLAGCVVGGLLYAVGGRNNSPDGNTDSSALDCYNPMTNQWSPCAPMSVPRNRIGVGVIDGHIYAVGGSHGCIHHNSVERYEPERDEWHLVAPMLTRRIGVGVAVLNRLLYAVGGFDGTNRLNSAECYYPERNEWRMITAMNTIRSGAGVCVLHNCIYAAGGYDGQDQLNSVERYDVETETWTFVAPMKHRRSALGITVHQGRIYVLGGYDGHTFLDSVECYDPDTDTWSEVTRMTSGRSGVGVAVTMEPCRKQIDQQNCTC
Sequence of Paired box protein Pax-8 (Q06710 whole entry, the tested form may be a part): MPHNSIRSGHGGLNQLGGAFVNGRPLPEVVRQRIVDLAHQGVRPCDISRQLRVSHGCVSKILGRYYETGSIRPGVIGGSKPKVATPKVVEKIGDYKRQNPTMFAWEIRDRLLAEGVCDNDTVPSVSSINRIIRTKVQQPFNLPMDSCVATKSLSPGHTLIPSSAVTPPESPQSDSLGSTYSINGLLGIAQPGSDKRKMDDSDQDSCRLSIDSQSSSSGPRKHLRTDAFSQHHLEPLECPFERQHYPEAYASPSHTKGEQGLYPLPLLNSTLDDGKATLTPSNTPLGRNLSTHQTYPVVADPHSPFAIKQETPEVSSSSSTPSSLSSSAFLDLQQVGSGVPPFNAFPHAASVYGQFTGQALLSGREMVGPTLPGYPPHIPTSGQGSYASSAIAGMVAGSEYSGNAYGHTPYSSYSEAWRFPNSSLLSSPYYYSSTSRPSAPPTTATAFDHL
Sequence of Protein-tyrosine kinase 2-beta (Q14289 whole entry, the tested form may be a part): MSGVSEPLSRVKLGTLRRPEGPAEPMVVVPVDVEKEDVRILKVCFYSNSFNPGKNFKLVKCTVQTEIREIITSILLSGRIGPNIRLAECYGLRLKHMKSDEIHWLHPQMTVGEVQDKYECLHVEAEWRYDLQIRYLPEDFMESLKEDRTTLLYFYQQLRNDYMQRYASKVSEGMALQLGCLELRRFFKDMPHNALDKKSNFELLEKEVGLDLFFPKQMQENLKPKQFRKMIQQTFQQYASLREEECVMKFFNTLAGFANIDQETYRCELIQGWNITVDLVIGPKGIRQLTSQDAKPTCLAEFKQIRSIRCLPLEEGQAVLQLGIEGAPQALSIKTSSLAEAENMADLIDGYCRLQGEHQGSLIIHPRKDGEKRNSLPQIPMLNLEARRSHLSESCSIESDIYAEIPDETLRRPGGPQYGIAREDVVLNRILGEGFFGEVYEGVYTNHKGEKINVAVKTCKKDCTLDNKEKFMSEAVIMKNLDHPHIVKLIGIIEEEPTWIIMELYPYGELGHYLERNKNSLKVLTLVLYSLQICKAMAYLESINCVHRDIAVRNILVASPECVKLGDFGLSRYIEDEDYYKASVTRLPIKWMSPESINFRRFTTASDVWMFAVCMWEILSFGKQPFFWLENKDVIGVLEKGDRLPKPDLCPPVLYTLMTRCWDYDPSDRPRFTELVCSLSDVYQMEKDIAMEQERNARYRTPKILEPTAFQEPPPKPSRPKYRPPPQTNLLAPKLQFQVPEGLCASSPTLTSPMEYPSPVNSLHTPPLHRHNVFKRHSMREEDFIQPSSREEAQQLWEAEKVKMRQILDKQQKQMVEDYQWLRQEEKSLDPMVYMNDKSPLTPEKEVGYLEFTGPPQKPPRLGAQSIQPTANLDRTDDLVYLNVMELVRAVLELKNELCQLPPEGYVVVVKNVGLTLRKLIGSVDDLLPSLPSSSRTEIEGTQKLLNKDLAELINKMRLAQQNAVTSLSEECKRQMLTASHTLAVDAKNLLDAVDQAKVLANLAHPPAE
Sequence of Photoreceptor-specific nuclear receptor (Q9Y5X4 whole entry): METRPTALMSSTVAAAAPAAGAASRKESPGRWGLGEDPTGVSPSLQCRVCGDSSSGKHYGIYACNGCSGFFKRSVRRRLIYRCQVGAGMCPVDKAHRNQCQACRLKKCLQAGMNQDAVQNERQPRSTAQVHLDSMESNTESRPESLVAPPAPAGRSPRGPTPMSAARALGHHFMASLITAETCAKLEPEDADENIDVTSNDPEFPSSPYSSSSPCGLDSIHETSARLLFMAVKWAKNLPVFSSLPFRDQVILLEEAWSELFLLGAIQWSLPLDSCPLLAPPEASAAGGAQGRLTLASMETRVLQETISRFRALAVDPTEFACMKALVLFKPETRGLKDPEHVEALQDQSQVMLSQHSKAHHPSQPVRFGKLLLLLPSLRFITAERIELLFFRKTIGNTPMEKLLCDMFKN

O=C1c2cc(F)ccc2-n2c1nc1ccccc1c2=O
EC50 [1]: > 120 µM (not active)
EC50 [2]: 8.84 µM (active)

CCOC(=O)C1=C(c2ccc(OC)cc2)C(=O)c2ccccc2C1=O
IC50 [3]: > 50 µM (not active)

COCCCNC(=O)c1ccc2c3c(onc13)-c1ccccc1C2=O
AC50 (Keap1/Nrf2): 1.73 µM (active)

O=C1C=C(N(CCO)Cc2ccccc2)c2ccccc2C1=O
AC50 (A-375): 37.8 µM (active)
IC50 [4]: 5.11 µM (active)
EC50 [5]: > 100 µM (active)

CCC(=O)OCCNc1cc(Sc2nccn2C)c2nonc2c1[N+](=O)[O-]
AC50 (Paired box protein Pax-8): 7.53 µM (active)
IC50 (CHO): 2.38 µM (active)

CCCCn1c(NC(=O)c2ccccc2Cl)c(C#N)c2nc3ccccc3nc21
IC50 (Caspase-3): 12.2 µM (active)
IC50 (SUMO-activating enzyme): 2.82 µM (active)
IC50 [6]: 1.99 µM (active)
IC50 (SUMO E1/E2): 10.9 µM (active)

CCc1ccc(OCC(=O)N/N=C2\CC(=O)c3ccccc32)cc1
IC50 (Caspase-3): 3.7 µM (active)
IC50 [6]: 8.49 µM (active)

O=C1C(=O)c2ccccc2-c2ccccc21 [9,10-PHENANTHRENEQUINONE]
AC50 [7]: 1.93 µM (active)
AC50 [8]: 4.53 µM (active)
IC50 [9]: > 69.5 µM (not active)
AC50 [10]: 2.66 µM (active)
AC50 [11]: 3.1 µM (active)
IC50 [12]: 6.37 µM (active)
AC50 [13]: 3.04 µM (active)
IC50 [14]: > 39.8 µM (not active)
IC50 [15]: 2.03 µM (active)
